{"source": "patent US20250282895A1", "about": "“PHARMACEUTICAL COMPOSITIONS OF CHEMOTHERAPEUTIC AGENTS BASED ON BETA-S[…]-AMINO ACID DERIVATIVES” (priority 2021, published 2025)", "assay_type_in_all_cases": "physicochemical", "key": {"[1]": {"assay": "Comparative stability, Formulation 4 (based on Treanda, mannitol)", "conditions": "pH 4-5 (bendamustine), pH 4 (Compound (1c)•HCl)", "description": "(§1) The stability of Compound (1c) either as the HCl salt or as the free base was compared to the stability of melphalan HCl and/or bendamustine HCl in various pharmaceutical formulations and at different concentrations and at temperatures of 0° C. or 25° C.\n(§2) The stability of the compounds in the pharmaceutical formulations was determined at concentrations within the range from 0.4 mg/mL to 0.5 mg/mL, from 0.9 mg/mL to 1.1 mg/mL, and from 1.8 mg/mL to 2.1 mg/mL.\n(§3) The amount of the active pharmaceutical ingredient (API) (Compound (1c), melphalan or bendamustine) in the pharmaceutical formulations at different times during storage was determined using HPLC/UV as described in detail for Example 4 and Example 5.\nTreanda® is an injectable formulation of bendamustine hydrochloride, 1H-benzimidazole-2-butanoic acid, 5-[bis(2-chloroethyl)amino]-1-methyl-, 4-(5-(bis(2-chloroethyl)amino)-1-methyl-1H-benzo[d]imidazol-2-yl) butanoic acid monohydrochloride approved by the FDA. Treanda® for injection is provided in a vial containing either 25 or 100 mg of bendamustine HCl as a white to off-white lyophilized powder. Each vial contains either 25 mg or 100 mg of bendamustine hydrochloride and 42.5 mg or 170 mg of mannitol, USP, which is reconstituted in either 0.9% sodium chloride injection, USP, or 2.5% dextrose/0.45% sodium chloride solution injection, USP to a final concentration of 0.2 mg/mL-0.6 mg/mL and adjusted to a pH from 2.5 to 3.5.\nA series of 12 mL glass vials each containing 12.5 mg (0.0317 mmol) of bendamustine mono-hydrochloride salt (C16H21C12N3O2·HCl, 394.72 g/mol; MedKoo, 200470) (corresponding to 11.3 mg of bendamustine as the free base) were prepared through weighing out the commercial compound into the vials. To each of the vials either containing bendamustine mono-hydrochloride salt was added 21.3 mg (0.117 mmol) of D-mannitol (C6H14O6, MW 182.17 g/mol; SigmaAldrich, M1902). The mixtures were dissolved in 2.0 mL of double distilled water (dd-H2O) (Arrowhead), the clear colorless solutions were frozen at −78° C. (dry ice/acetone bath), and the solvents were lyophilized off at about 100 mTorr within about 16 h to afford colorless solids.\nA stock solution was prepared by dissolving 85.0 mg (0.255 mmol) of Compound (1c) (free base) and 170.4 mg of D-mannitol (0.935 mmol) (C6H14O6, MW 182.17 g/mol; SigmaAldrich, M1902), and 0.503 mL of 0.5072 M aq. HCl (0.255 mmol, 1.0 eq.) (Fluka, 318957) in about 16.0 mL of a mixture of acetonitrile/water (1:1, v/v) with vortexing in clean graduated glass cylinder (25 mL) to afford a stock solution of Compound (1c) as a mono-HCl salt of a concentration of 5.313 mg/mL and a D-mannitol concentration of 10.65 mg/mL. This solution was filtered through a 0.22 μm PTFE syringe filter into a clean 25 mL Erlenmeyer flask. Aliquots of 2.0 mL (2× 1.0 mL; 2× 5.313 mg) of this stock solution were rapidly pipetted into clean 12 mL scintillation vials. The aliquots were frozen at −78° C. (dry ice/acetone bath) and lyophilized at about 100 mTorr for about 16 hours to provide test vials each containing 11.8 mg (0.0319 mmol) of Compound (1c) mono-hydrochloride salt (mono-HCl salt) (corresponding to 10.6 mg of Compound (1c) as a free base) and 21.3 mg (0.117 mmol) of D-mannitol as a colorless powdery solid.\nThe materials in the vials were dissolved 2.5 mL of double-distilled water (dd-H2O) (Arrowhead) to provide clear colorless, non-viscous stock solutions of a concentration of 4.24 mg/mL of Compound (1c) as the monohydrochloride salt or 4.54 mg/mL of bendamustine as the mono-hydrochloride salt, respectively.\n1.0 mL of the stock solution containing 4.24 mg/mL of Compound (1c) as the monohydrochloride salt was diluted with 9.0 mL of 0.9% saline to afford 10.0 mL of a test solution of a concentration of 0.424 mg/mL of Compound (1c) as the monohydrochloride salt and with a pH of about 4. […]"}, "[2]": {"assay": "Comparative stability, Formulation 3 (based on Evomela, SBE6.5-β-CD)", "conditions": "Formulation 3, 25° C., 0.4-0.5 mg/mL, pH 5.8-6.1 (melphalan), pH 5-6 (Compound (1c)•HCl)", "description": "as §1, §2, §3\nEvomela® is an injectable formulation of melphalan hydrochloride, 4-[bis(2-chloroethyl)amino]-L-phenylalanine hydrochloride, approved by the FDA. Evomela® is supplied as a sterile white to off-white lyophilized powder in a single-dose vial for intravenous use. Each vial containing 50 mg melphalan free base equivalent to 56 mg melphalan hydrochloride and 2,700 mg betadex sulfobutyl ether (SBE6.5-β-CD; sulfobutyl ether β-cyclodextrin sodium) sodium, NF. Normal saline solution (0.9% Sodium Chloride Injection, USP) (8.6 mL as directed) is used to reconstitute Evomela® to a total of 10 mL having a 5 mg/mL nominal concentration of melphalan. The required volume of Evomela® needed for a patient dose is withdrawn from the vial(s) and added to the appropriate volume of 0.9% Sodium Chloride Injection, USP, to a final nominal concentration of 0.45 mg/mL of melphalan. This solution is then infused via an injection port or central venous catheter.\nA series of 12 mL glass vials each containing 5.5 mg (0.0165 mmol of Compound (1c) free base and 270 mg of SBE6.5-β-CD, Captisol®) were prepared as described in Example 4.\nThe cyclodextrin derivative/Compound (1c) free base guest-host inclusion complex was reconstituted by dissolving the guest-host inclusion complex in 0.86 mL of 0.9% saline to provide 1.0 mL of a solution having a nominal concentration of 5.5 mg/mL of Compound (1c) free base.\n(§4) A 1.0 mL aliquot of this solution was diluted with 10.0 mL of 0.9% saline, and the pH adjusted with 5 μL of a saturated aqueous NaHCO3 solution to provide 11.0 mL of a clear, colorless solution having a nominal concentration of 0.50 mg/mL of Compound (1c) from Compound (1c) free base and a pH from 5.8 to 6.1.\nas §4, with “4.5” for “10.0”, “5.5” for “11.0”, “1.0” for “0.50”, “of about” for “from 5.8 to”\nas §4, with “1.75” for “10.0”, “2.75” for “11.0”, “2.0” for “0.50”, “of about” for “from 5.8 to”\nA series of 12 mL glass vials each containing 6.1 mg (0.0165 mmol of Compound (1c) mono-hydrochloride salt (corresponding to 5.5 mg of Compound (1c) free base) and 270 mg of SBE6.5-β-CD, Captisol®) were prepared as described in Example 5.\nThe cyclodextrin derivative/Compound (1c) mono-HCl salt guest-host inclusion complex was reconstituted by dissolving the guest-host inclusion complex in 0.86 mL of 0.9% saline to provide 1.0 mL of a solution having a nominal concentration of 6.1 mg/mL of Compound (1c) mono-HCl salt (corresponding to a nominal concentration of 5.5 mg/mL of the Compound (1c) free base).\nas §4, with “0.5” for “1.0”, “5.0” for “10.0”, “5.5” for “11.0”, “mono-hydrochloride” for “free base”, “5.3” for “5.8”, “5.5. […]” for “6.1.”"}, "[3]": {"assay": "Stability of Compound (1c) free base in PBS buffer (LC/MS/MS)", "conditions": "PBS buffer pH 7.4, 37° C., 1 μM", "description": "A stability assay was carried out in 96-well microtiter plates. (S)-3-Amino-4-(5-(bis(2-chloroethyl)amino)-2-methylphenyl) butanoic acid (Compound (1c) free base) was incubated at 37° C. in phosphate buffered saline (PBS buffer), pH 7.4. The reaction mixtures (30 μL) contained a final concentration of 1 μM of Compound (1c). The percent Compound (1c) remaining in the mixture was determined using LC/MS/MS.\nAt each of the sampling time points, 300 μL of quench solution (50 vol-% acetonitrile, 50 vol-% methanol containing 1.3% (v/v) of 6N HCl) with internal standards (bucetin for positive ESI mode; warfarin for negative ESI mode) was transferred to each well. Plates were sealed and centrifuged at 4° C. for 15 min at 4,000 rpm. The supernatant was transferred to new plates for LC/MS/MS analysis.\nAll samples were analyzed on LC/MS/MS using an AB Sciex API 4000® instrument, coupled to a Shimadzu LC-20AD LC Pump system. Analytical samples were separated using a Waters Atlantis T3 dC18 reverse phase HPLC column (20 mm×2.1 mm) at a flow rate of 0.4 mL/min. The mobile phases consisted of 0.1% formic acid in water (solvent A) and 0.1% formic acid in 100% acetonitrile (solvent B)."}}, "data": [{"compound": "Cl.Cn1c(CCCC(=O)O)nc2cc(N(CCCl)CCCl)ccc21", "note": "[Bendamustine•HCl, 4-(5-(bis(2-chloroethyl)amino)-1-methyl-1H-benzo[d]imidazol-2-yl) butanoic acid monohydrochloride, reference compound]", "values": [{"measurement": "% API", "setting": "[1]; Formulation 4, 0° C., 0.5 hours, 0.4-0.5 mg/mL", "value": 98, "unit": "%"}, {"measurement": "% API", "setting": "[1]; Formulation 4, 0° C., 2.0 hours, 0.4-0.5 mg/mL", "value": 95, "unit": "%"}, {"measurement": "% API", "setting": "[1]; Formulation 4, 25° C., 0.5 hours, 0.4-0.5 mg/mL", "value": 98, "unit": "%"}, {"measurement": "% API", "setting": "[1]; Formulation 4, 25° C., 0.5 hours, 0.9-1.1 mg/mL", "value": 97, "unit": "%"}, {"measurement": "% API", "setting": "[1]; Formulation 4, 25° C., 0.5 hours, 1.8-2.1 mg/mL", "value": 95, "unit": "%"}, {"measurement": "% API", "setting": "[1]; Formulation 4, 25° C., 2.0 hours, 0.4-0.5 mg/mL", "value": 91, "unit": "%"}, {"measurement": "% API", "setting": "[1]; Formulation 4, 25° C., 2.0 hours, 0.9-1.1 mg/mL", "value": 95, "unit": "%"}, {"measurement": "% API", "setting": "[1]; Formulation 4, 25° C., 2.0 hours, 1.8-2.1 mg/mL", "value": 89, "unit": "%"}]}, {"compound": "N[C@@H](Cc1ccc(N(CCCl)CCCl)cc1)C(=O)O", "note": "[Melphalan free base, melphalan, reference compound]", "values": [{"measurement": "% API", "setting": "[2]; 0.5 hours", "value": 97, "unit": "%"}, {"measurement": "% API", "setting": "[2]; 2.0 hours", "value": 84, "unit": "%"}]}, {"compound": "Cc1ccc(N(CCCl)CCCl)cc1C[C@H](N)CC(=O)O", "note": "[Compound (1c), (S)-3-amino-4-(5-(bis(2-chloroethyl)amino)-2-methylphenyl) butanoic acid]", "values": [{"measurement": "Compound (1c) Remaining (%)", "setting": "[3]; 0 min", "value": 100, "unit": "%"}, {"measurement": "Compound (1c) Remaining (%)", "setting": "[3]; 15 min", "value": 78, "unit": "%"}, {"measurement": "Compound (1c) Remaining (%)", "setting": "[3]; 30 min", "value": 68, "unit": "%"}, {"measurement": "Compound (1c) Remaining (%)", "setting": "[3]; 60 min", "value": 56, "unit": "%"}, {"measurement": "Compound (1c) Remaining (%)", "setting": "[3]; 120 min", "value": 30, "unit": "%"}, {"measurement": "Compound (1c) Remaining (%)", "setting": "[3]; 240 min", "value": 10, "unit": "%"}]}]}
